Patent US20260076988A1 (The Cleveland Clinic Foundation, priority 2019, published 2026)
Entries after “also recorded” stand apart in the source; their conditions may differ. Read-outs that look alike come from different tables or passages of the source.

What was measured:
[1] = system: patient-derived AML cells; test: Patient-derived xenotransplant (PDX) model of chemorefractory AML; settings: for added benefit of ribonucleotide reductase inhibitor to THU+decitabine: dT 2 g/kg IP, hydroxyurea 100 mg/kg IP Day 1 before THU+decitabine days 2 and 3; for human CD45+ (hCD45+) AML cells in bone marrow: Day 45
Source text: NSG mice were tail-vein inoculated with patient-derived AML cells (1×10^6 cells/mouse) and randomized to (i) PBS vehicle control; (ii) CDA-inhibition by intra-peritoneal (IP) tetrahydrouridine (THU) and de novo pyrimidine synthesis inhibition by IP thymidine (dT); (iii) Dec; (iv) THU and Dec; (v) THU, Dec and dT (n=5/group). PBS, THU+dT mice were euthanized for distress on D42, and other mice were sacrificed for analysis on D63. […] C) Bone marrow human (hCD45) and murine (mCd45) myelopoiesis content. Flow-cytometry. Median±IQR. p-value Mann-Whitney test 2-sided. […] Median±IQR. p-value Mann-Whitney test 2-sided.
NSG mice were tail-vein inoculated with patient-derived AML cells (1×10^6 cells/mouse) and on Day 9 after inoculation randomized to the treatments as shown (n=7/group). Mice were euthanized if there were signs of distress. A) Experiment schema; B) Time-to-distress and euthanasia. C) Bone marrow human (hCD45) and murine (mCd45) myelopoiesis content. Femoral bones flushed after euthanasia. Measured by flow-cytometry. Median±IQR. D) Spleen weights at time-of-distress/euthanasia. Median±IQR. E) Spleens at the time-of-distress/euthanasia.
NSG mice were tail-vein inoculated with patient-derived AML cells (1×10^6 cells/mouse) and randomized to the treatments shown (n=5/group). Blood counts were obtained periodically by tail-vein phlebotomy. Mice were euthanized for signs of distress. A) Experiment schema; B) Time-to-distress. Log-rank test. […] D) Bone marrow replacement by AML. Bone marrow human and murine CD45+ cells measured by flow-cytometry (FIG. 32) after euthanasia (time-points panel B). Median±IQR. p-value Mann-Whitney test 2-sided. […] Flow cytometry (FIG. 33).
C) Percentage of human CD45+ (huCD45) positive cells in bone marrow. Flow cytometry. Median±IQR. p-value Mann-Whitney test 2-sided. 5 mice in each treatment group analyzed.
Mice were euthanized for signs of distress. A) Experiment schema; B) Time-to-distress. p-value Log-rank test. C) Bone marrow human leukemia cell burden at time-of-distress. Flow cytometry for human CD45+ cells. Median±IQR. p-value Mann-Whitney test 2-sided. […] E) Spleen weights at time-of-distress. Median±IQR. p-value Mann-Whitney test 2-sided.
NSG mice were tail-vein inoculated with patient-derived AML cells (1×10^6 cells/mouse) and on Day 5 after inoculation randomized to the treatments as shown (n=7/group). Mice were euthanized if there were signs of distress.

[2] = system: UCK2-knockout HAP1 leukemia cells; test: Growth inhibition of UCK2-knockout HAP1 leukemia cells; assay type: cell-based; settings: Homo sapiens
Source text: (§1) A) DCK and UCK2 knockout (KO) were confirmed by Western blot. HAP1 leukemia cells, KO by CRISPR-Cas9. B) DCK-KO lowers dCTP and UCK2-KO lowers dTTP. Analysis of independent nucleotide extractions. Means±SD; p-values unpaired t-test, 2-sided. C) Sensitivity of Wildtype, DCK-KO and UCK2-KO HAP1 leukemia cells to Dec vs 5Aza. Means±SD of 3 independent biological replicates.
(§2) Study approvals. Bone marrow samples for research were obtained from patients with AML (Acute myeloid leukemia) with written informed consent on a study protocol approved by the Cleveland Clinic Institutional Review Board (Cleveland, Ohio). Murine experiments were approved by the Cleveland Clinic Institutional Animal Care and Use Committee (Cleveland, Ohio). Sources of cell lines and animals. […] DNMT1 Immuno-detection and quantitation: Immunohistochemistry (IHC) was performed on decalcified and formalin-fixed paraffin embedded bone marrow biopsy sections (4 μm) and on positive and negative controls (parental and DNMT1-KO HCT116 cells). […] Nuclei positive for DNMT1 were identified and quantified in high resolution, large field-of-view images per ImageIQ algorithms (Image IQ Inc., Cleveland, OH) after segmentation of images and subtraction of bone as has been previously described^4.

[3] = system: dCTP, dTTP and pyrimidine metabolism enzymes; test: AML cells: nucleotide levels (LCMS/MS) and enzyme expression (QRT-PCR, Western blot); assay type: cell-based
Description: (§3) A) Experiment schema. Vehicle, natural deoxycytidine (dC) 0.5 uM, natural cytidine (C) 5 uM, Dec 0.5 uM, or 5Aza 5 uM were added once to AML cells at 0 hours. B) Cell counts. By automated counter. Means±SD for 3 independent biological replicates for each cell line. C) Dec and 5Aza have opposite effects on dCTP levels. Measured by LCMS/MS 24 hrs after addition of Dec or 5Aza. Analyses of 2 or more independent nucleotide extractions from 3 different AML cells lines. Means±SD; p-values paired t-test, 1-sided. D) Gene expression 72 hours after Dec or 5Aza. Gene expression by QRT-PCR, relative to average expression in vehicle-treated controls. Means±SD for 3 independent biological replicates in each of 3 AML cell lines; p-values unpaired t-test vs vehicle, 2-sided. E) Western blot 72 hours after Dec or 5Aza. AML cells THP1, OCI-AML3 and K562. Western blots were reproduced in three independent biological replicates.
C) Off-target pathways of Dec and 5Aza. D) Effects of Dec and 5Aza on RRM2A, RRM2B and CTPS1 protein levels. Western blots 72 hours after addition of a single dose of Dec 0.25 μM or 5Aza 2.5 uM. Western blots were reproduced in biological replicates.

[4] = system: AML cells (MOLM13, OCI-AML3, THP1); test: AML cell proliferation after a single dose; assay type: cell-based; settings: decitabine, deoxycytidine 0.5 μM, 5-azacytidine, cytidine 5 μM
Description: as §3

[5] = system: F1339 p53-null SCLC cells; test: F1339 SCLC cells in vitro: proliferation, apoptosis, differentiation; assay type: cell-based, murine
Description: (§4) FIG. 2. […] F1339 p53-null cancer cells were seeded at D0 and treated with DMSO, deoxycytidine (DC, 0.5 μM), cytidine (CY, 5 μM), Dec (0.5 μM) and 5Aza (5 μM). […] Cell counts by automated counter, mean±SD. […] Gene expression by Q-PCR, median±interquartile range (IQR) (3 biological replicates), *p<0.05, **p<0.01. 2-sided Mann-Whitney test. […] Western blot.

DCK = settings: leukemia cells, within 48 hours; cited from earlier work
DCK, UCK2, CDA and CAD [6] = test: Patients' bone marrow enzyme expression pre-treatment vs relapse, QRT-PCR; assay type: in vivo, human; settings: MDS patients' bone marrow; for average increase of CAD expression at relapse: not in all patients
Source text: (§5) Serial bone marrow biopsies from the same patient were cut onto the same slide, stained for DNMT1, and the number of DNMT1-positive nuclei was quantified objectively using ImageIQ software in 13 patients and positive/negative controls (tissue blocks of HCT116 wild-type and DNMT1-knockout cells respectively). D=days of therapy. Pre-Rx=pre-treatment; HI=hematologic improvement; CR=complete remission; SD=stable disease; Rel.=relapse. Mean±SD of ×3 image segments (cellular regions) per sample; p-value paired t-test, 2-sided. C) Expression of key pyrimidine metabolism enzymes at relapse/progression on Dec. […] Bone marrow cells aspirated pre-treatment and at relapse/progression on Dec (13 patients, median duration of therapy 175 days, range 97-922) or 5Aza (14 patients, median duration of therapy 433 days, range 61-1155) were analyzed by QRT-PCR. Mean±SD technical replicates×3. Paired t-test, 2-sided. D) Expression by Western blot of DNMT1 and key pyrimidine metabolism enzymes in Dec-resistant AML cells (THP1, K562, OCI-AML3 and MOLM13), and in parental THP1 AML cells treated with vehicle, Dec or 5-azacytidine (5Aza). Western blots.
DNA isolation, reverse transcription (RT) and real-time PCR. As previously described^59. Primer sequences were:
CAD increased an average of ˜8-fold at relapse on either pro-drug, but not in all patients (FIG. 23C). The proliferation marker MKI67 increased at relapse in almost all the patients, consistent with active progression of disease (FIG. 23C).

[7] = cited from earlier work
LL3 lung cancer cells = test: Syngeneic disseminated lung cancer model (LL3, tail vein); assay type: in vivo, C57BL/6 mice; settings: for increase of time-to-distress over vehicle: treatment from day 21, Dec 0.2, THU-Dec 10/0.1, 5Aza 2, THU-5Aza 10/1 mg/kg sc 3×/wk
Source text: (§6) 2-sided Mann-Whitney test.
as §6, §6

[8] = system: parental HAP1 leukemia cells; test: Growth inhibition of parental HAP1 leukemia cells; assay type: cell-based; settings: Homo sapiens
Source text: as §1, §2

DNMT1 = test: Serial patient bone marrow biopsies, DNMT1 immunohistochemistry; assay type: in vivo, human; settings: for decrease of DNMT1 protein at time-of-response compared to pre-treatment: 13 patients
Source text: as §5, §2

Dck, Uck2, Cda and Cad [9] = test: F1339 cells: pyrimidine metabolism enzyme expression by QRT-PCR and Western blot; assay type: cell-based, murine
Description: as §4
RNA was extracted using Trizol reagent (Invitrogen) before the generation of complementary DNA using the iScript™ cDNA Synthesis Kit (Bio-rad). Quantitative PCR was run on StepOnePlus Real-Time PCR System (Applied Biosystems), using comparative Ct value method to quantify the expression of target genes in different samples. Gene expression was normalized to the housekeeping gene β-actin.
Tumor cells were lysed with RIPA lysis buffer and protein concentrations determined by BCA protein assay kit (Thermo Fisher Scientific). Samples with equal quantity (40 μg) of total protein were mixed with 4× loading buffer and 10× sample reducing reagent (Thermo Fisher Scientific), subjected to electrophoresis on a 12% (v/v) SDS-polyacrylamide gel, then transferred onto polyvinylidene fluoride membranes. After blocking with 5% dried skimmed milk, the membranes were washed three times and incubated with primary antibodies at 4° C. overnight. After washing, the membranes were further incubated with corresponding horseradish peroxidase-conjugated secondary antibodies. The membranes were then treated with Pierce™ ECL substrates (Thermo Scientific) then visualized using X-ray film.

[10] = system: DCK-knockout HAP1 leukemia cells; test: Growth inhibition of DCK-knockout HAP1 leukemia cells; assay type: cell-based; settings: Homo sapiens
Source text: as §1, §2

thoracic malignancies = settings: cited from earlier work
[11] = HAP1, read-out: GI50 (concentration for 50% growth inhibition)
[12] = THU+dT day 42, other treatments day 63
[13] = lung cancer cells, within 72-96 hours

Cc1cn([C@H]2C[C@H](O)[C@@H](CO)O2)c(=O)[nH]c1=O [dT, deoxythymidine]
added benefit of ribonucleotide reductase inhibitor to THU+decitabine [1]: did not add further to the benefit from THU

Nc1ncn([C@@H]2O[C@H](CO)[C@@H](O)[C@H]2O)c(=O)n1 [5-azacytidine]
GI50 ([2]; HAP1, UCK2-knockout cells, read-out: GI50 (concentration for 50% growth inhibition)): 15 µM | DNMT1 protein [3]: depleted DNMT1 | RRM1 protein [3]: decreased levels of the ribonucleotide reductase sub-unit RRM1 | TYMS protein [3]: downregulated | dCTP amount ([3]; 24 hour time-point): significantly decreased | dTTP amount ([3]; 24 hour time-point): decreased by both pro-drugs, but not to statistical significance | CDA mRNA and protein expression ([3]; 72 hour time-point): significantly increased | DCK mRNA and protein expression ([3]; 72 hour time-point): significantly increased | phosphorylation of CAD at serine 1856 ([3]; 72 hour time-point): decrease phosphorylation of CAD at serine 1856 | total CAD or CTPS1 levels ([3]; 72 hour time-point): Neither pro-drug changed total CAD | AML cell proliferation [4]: significantly decreased AML cell proliferation | cell membrane Annexin-V staining (apoptosis-induction) ([5]; 24 hours after initiation of drug exposure): unaltered cell membrane Annexin-V staining | morphologic changes of differentiation ([5]; Giemsa-stained cytospins Day 5): induced morphologic changes in the cells consistent with differentiation induction | Myc protein ([5]; Western blot Day 5): decreased Myc protein | p27/CDKN1B protein ([5]; Western blot Day 5): increased p27/CDKN1B protein | F1339 proliferation ([5]; decitabine 0.5 μM, 5-azacytidine 5 μM, cytarabine 0.5 μM): significantly decreased F1339 proliferation; also recorded: did significantly impede the SCLC cell proliferation | DCK upregulation (DCK): ~30% | decrease of CDA expression at relapse (DCK, UCK2, CDA and CAD [6]): ~50% | decrease of UCK2 expression at relapse (DCK, UCK2, CDA and CAD [6]): ~50% | increase of DCK expression at relapse (DCK, UCK2, CDA and CAD [6]): ~8 fold | average increase of CAD expression at relapse (DCK, UCK2, CDA and CAD [6]): ~8 fold | in vivo plasma half-life [7]: ~15 min | increase of time-to-distress over vehicle (LL3 lung cancer cells): about 20 days | GI50 ([8]; HAP1, parental cells, read-out: GI50 (concentration for 50% growth inhibition)): 4 µM | DNMT1 protein at time-of-relapse on-therapy (DNMT1): rebounded to levels comparable to pre-treatment levels | decrease of DNMT1 protein at time-of-response compared to pre-treatment (DNMT1): ~50% | expression of Dck, Uck2, Cda and Cad (Dck, Uck2, Cda and Cad [9]; decitabine 0.5 μM, 5-azacytidine 5 μM): increased Dck, Cda and Cad expression several-fold | CAD upregulation (Dck, Uck2, Cda and Cad [9]; lung cancer cells): ~2 fold | DCK upregulation (Dck, Uck2, Cda and Cad [9]; lung cancer cells): ~3 fold | GI50 ([10]; HAP1, DCK-knockout cells, read-out: GI50 (concentration for 50% growth inhibition)): 2 µM

Nc1ncn([C@H]2C[C@H](O)[C@@H](CO)O2)c(=O)n1 [decitabine]
myelosuppression (thoracic malignancies; human, in vivo): grade ¾ myelosuppression | sustained plasma concentration (thoracic malignancies; intravenous infusion, for ~72 hours): > 40 nM | GI50 [2, 11]: 0.1 µM | median survival (time-to-distress) ([1]; Dec 0.2 mpk SC Day 1 and 2 each week): 75 days | median survival (time-to-distress) ([1]; Dec 0.2 mpk SC Day 1 and 4 each week): 60 days | human CD45+ (hCD45+) AML cells in bone marrow ([1]; Dec 0.3 mpk SC Day 1 and 2 each week): ~26% | human CD45+ (hCD45+) AML cells in bone marrow ([1]; Dec 0.3 mpk SC Day 1 and 4 each week): ~63% | bone marrow hCD45+ [1, 12]: ~85% | bone marrow murine Cd45+ (murine hematopoiesis) [1, 12]: ~5% | DNMT1-depletion in bone marrow cells ([1]; day 63, on-therapy, flow cytometry): ~35% | median survival (time-to-distress) ([1]; week-to-week alternation experiment (FIG. 28)): 111 days | decrease of DCK expression at relapse (DCK, UCK2, CDA and CAD [6]): ~50% | increase of CDA expression at relapse (DCK, UCK2, CDA and CAD [6]): ~3 fold | increase of UCK2 expression at relapse (DCK, UCK2, CDA and CAD [6]): ~8 fold | average increase of CAD expression at relapse (DCK, UCK2, CDA and CAD [6]): ~8 fold | in vivo plasma half-life [7]: ~15 min | increase of time-to-distress over vehicle (LL3 lung cancer cells): about 20 days | GI50 [8, 11]: 3 µM | decrease of DNMT1 protein at time-of-response compared to pre-treatment (DNMT1): ~50% | CDA upregulation (Dck, Uck2, Cda and Cad [9]; [13]): ~3 fold | UCK2 upregulation (Dck, Uck2, Cda and Cad [9]; [13]): ~3 fold | GI50 [10, 11]: 12 µM

NC(=O)NO [hydroxyurea]
added benefit of ribonucleotide reductase inhibitor to THU+decitabine [1]: did not add further benefit to THU+decitabine

O=C1NC(O)CCN1[C@@H]1O[C@H](CO)[C@@H](O)[C@H]1O (stereo partly drawn) [THU, tetrahydrouridine]
increase of oral bioavailability of decitabine and 5-azacytidine ([7]; addition of THU): ~10 fold | increase of plasma half-lives of decitabine and 5-azacytidine ([7]; addition of THU): ~10 fold | increase of efficacy of decitabine or 5-azacytidine by THU (LL3 lung cancer cells; in vivo studies of murine lung cancer): ~2 fold | myelosuppression (LL3 lung cancer cells; murine models of lung cancer): without bone marrow suppression

Nc1ccn([C@H]2C[C@H](O)[C@@H](CO)O2)c(=O)n1 [deoxycytidine]
AML cell proliferation [4]: did not impact proliferation

Nc1ccn([C@@H]2O[C@H](CO)[C@@H](O)[C@H]2O)c(=O)n1 [cytidine]
AML cell proliferation [4]: did not impact proliferation
